Data as given in patent US20220040253A1, “Agonists of Human Kisspeptin Receptor for Modulating Sexual Desire” (Université de Liège, priority 2019, published 2022).
Entries after “also recorded” stand apart in the source; their conditions may differ. No end group written: not given here.

Legend:
[1] = tested on: female mice; test: Lordosis test without photostimulation (lordosis quotient); format: in vivo, mouse
Method: Unless otherwise stated, females were ovariectomized in adulthood (>8 weeks of age) under general anesthesia after either subcutaneous (sc) injections of ketamine (80 mg kg^−1 per mouse) and medetomidine (Domitor, Pfizer, 1 mg kg^−1 per mouse) or under 5% isoflurane, in order to control for endogenous hormone concentrations and to prevent pregnancies upon repeated testing. At the same time, all females received a 5 mm-long Silastic capsule (inner diameter: 1.57 mm; outer diameter: 2.41 mm) containing crystalline 17β-estradiol (diluted 1:1 with cholesterol) subcutaneously in the neck. The dose of E2 (E8875, Sigma) was based on a previous study^62 showing that this treatment leads to estradiol levels similar to mice in estrus. At the end of surgery, females under ketamine/medetomidine anesthesia received a sc injection of atipamezole (Antisedan, Pfizer, 4 mg kg^−1 per mouse) to antagonize medetomidine-induced effects and accelerate recovery. In order to induce sexual receptivity at the day of testing, all females received a subcutaneous injection with progesterone (500 μg, P0130, Sigma) 3 h before the onset of the behavioral test, unless stated otherwise (for overview of all the different hormone treatments, see Table 1). […]
Kisspeptin-10 (Kp-10) was synthesized in Strasbourg, France (Sequence: Tyr-Asn-Trp-Asn-Ser-Phe-Gly-Leu-Arg-Tyr-NH2, NeoMPS; weight=25.7 mg). To determine whether kisspeptin stimulated female sexual behavior in wildtype C57BL/6J mice, females received a sc injection of Kp-10 at the dose of 0.52 μg kg^−1 (injection volume 100 μl) 2h before the lordosis test. Each animal was used as its own control, i.e. the animal was injected one day with Kp-10 and the other day with saline. Females were not injected with progesterone in this particular experiment. Injections were separated by at least 3 days. […]
Females were subjected to weekly lordosis tests in a Plexiglas aquarium (37 cm long×17 cm high×21 cm wide). A sexually experienced male was placed alone in the aquarium and allowed to adapt for 15 min. Subsequently, 3 h after receiving a subcutaneous progesterone injection (500 μg, P0130, Sigma) to induce behavioral estrus, the lordosis responses of the female to the mounts of the stimulus male were recorded. The test lasted until the female received 10 mounts or 10 min had elapsed. For the first experiment (mating-induced Fos activation) ovary intact females were paired with males during 30 minutes. […] Before each experimental condition (drug injection, cell ablation, optogenetic stimulation), all females were subjected to at least three lordosis tests (with progesterone) in order to acquire sufficient sexual experience and thus a significant LQ. Tests were performed during the dark phase of the light cycle (5 h after lights out; for details, see^67). For all details on the different hormone treatments (estradiol versus estradiol+progesterone), see Table 1.

[2] = tested on: female mice; test: Mate preference test (three-compartment box, preference score); format: in vivo, mouse
Method: Unless otherwise stated, females were ovariectomized in adulthood (>8 weeks of age) under general anesthesia after either subcutaneous (sc) injections of ketamine (80 mg kg^−1 per mouse) and medetomidine (Domitor, Pfizer, 1 mg kg^−1 per mouse) or under 5% isoflurane, in order to control for endogenous hormone concentrations and to prevent pregnancies upon repeated testing. At the same time, all females received a 5 mm-long Silastic capsule (inner diameter: 1.57 mm; outer diameter: 2.41 mm) containing crystalline 17β-estradiol (diluted 1:1 with cholesterol) subcutaneously in the neck. The dose of E2 (E8875, Sigma) was based on a previous study^62 showing that this treatment leads to estradiol levels similar to mice in estrus. At the end of surgery, females under ketamine/medetomidine anesthesia received a sc injection of atipamezole (Antisedan, Pfizer, 4 mg kg^−1 per mouse) to antagonize medetomidine-induced effects and accelerate recovery. In order to induce sexual receptivity at the day of testing, all females received a subcutaneous injection with progesterone (500 μg, P0130, Sigma) 3 h before the onset of the behavioral test, unless stated otherwise (for overview of all the different hormone treatments, see Table 1).
Kisspeptin-10 (Kp-10) was synthesized in Strasbourg, France (Sequence: Tyr-Asn-Trp-Asn-Ser-Phe-Gly-Leu-Arg-Tyr-NH2, NeoMPS; weight=25.7 mg). To determine whether kisspeptin stimulated female sexual behavior in wildtype C57BL/6J mice, females received a sc injection of Kp-10 at the dose of 0.52 μg kg^−1 (injection volume 100 μl) 2h before the lordosis test. Each animal was used as its own control, i.e. the animal was injected one day with Kp-10 and the other day with saline. Females were not injected with progesterone in this particular experiment. Injections were separated by at least 3 days.
Two hours before mate preference test, female mice received a single sc injection of GnRH (0.025 mg kg^−1, Polypeptide Laboratories France SAS, SC087).
S-nitroso-N-acetyl-DL-Penicillamine (SNAP) (N398-Sigma) is a NO donor. […]
To assess mate preferences shown in response to auditory and olfactory stimuli, we used a box (60 cm long×30 cm high×13 cm wide) that was divided into three compartments using perforated opaque partitions. […] The time the subject spent poking her nose through the holes of the partition or actively sniffing the bottom of the partition in front of the female versus male stimulus animal was recorded. A preference score was calculated by dividing the time spent investigating the male compartment minus the time spent investigating the female compartment by the total time spent investigating both compartments. […]

[3] = tested on: human female patients diagnosed with HSDD; test: Brain activation by BOLD MRI while watching erotic pictures; format: in vivo; conditions: single sc injection 6.4 nmol/kg; scan 30 minutes after injection; versus saline session
Method: 20 human female patients diagnosed with HSDD receive either a single subcutaneous (sc) injection of kisspeptin-54 (SEQ ID NO: 17) at a dose of 6.4 nmol/kg of body weight or a sc injection of a saline (i.e. control). The sexual desire of the patients is measured by determining their brain activation using magnetic resonance imaging (MRI) with the blood-oxygenation-level-dependent (BOLD) technique to identify and quantify brain regions associated with visually evoked sexual arousal in women. All female patients are subjected to two sessions on separate days with at least 1 month in between the sessions to act as their own control. They receive in one session kisspeptin-54 and in the other one saline, the order will be randomized. Female patients are positioned into the MRI scanner 30 minutes after the sc injection and three dimensional images are taken of the brain when watching a series of erotic pictures as well as more neutral pictures to serve as control condition using an event-related design. The task is followed by an anatomical scan in which high resolution T1-weighted images are taken to determine the anatomical boundaries of the activation observed during the visual task.

[4] = tested on: human female patients diagnosed with HSDD; test: Vaginal photoplethysmography (vaginal blood flow) while watching erotic or neutral images; format: in vivo; conditions: single sc injection 6.4 nmol/kg
Method: 20 human female patients diagnosed with HSDD receive either a single subcutaneous (sc) injection of kisspeptin-54 (SEQ ID NO: 17) at a dose of 6.4 nmol/kg of body weight or a sc injection of saline (i.e. control). The sexual desire of the patients is measured using vaginal photoplethysmography, which has been used to assess female genital arousal. It consists of a tampon-sized acrylic device containing a light emitting diode and a phototransistor to detect light to measure vaginal blood flow with increased sexual desire leading to increased vaginal blood flow. The sexual desire of the patients is scored starting 15 minutes after administration of sc kisspeptin or saline when watching either erotic images or neutral images. […] Any effects of kisspeptin on sexual desire disappear by 4 h after the injection.

## Tyr-Asn-Trp-Asn-Ser-Phe-Gly-Leu-Arg-Tyr-NH2 (YNWNSFGLRY-NH2) [Kp-10, Kisspeptin-10 synthesized in Strasbourg (NeoMPS), the decapeptide injected in mice]
[1]; Kiss-/- (OVX+E+P) females with lordosis deficits, single sc injection, FIG. 4d
  lordosis behavior: induced lordosis behavior; also recorded: could be reversed
[1]; WT C57BL/6J OVX+E females (no progesterone), sc 0.52 μg/kg 2 h before test, P<0.001, FIG. 4b
  lordosis behavior: robustly stimulated lordosis behavior
[1]; WT C57Bl6 (OVX+E+P) females, intracerebroventricular 10.4 ng/kg 1 h before test, P=0.012, FIG. 6
  lordosis behavior: stimulates lordosis behavior; also recorded: also stimulated lordosis behavior
[1]; nNOS-/- (OVX+E+P) females, sc injection, P=0.56, FIG. 11c
  lordosis behavior: failed to restore lordosis behavior
[1]; nNOS-/- (OVX+E+P) females, sc injection, P=0.56, FIG. 11c, listed as KP-10
  lordosis behavior: failed to stimulate lordosis behavior
[2]; GnRH::Cre, Dicer loxP/loxP females (OVX+E+P), sc injection, P=0.38, FIG. 9a
  male-directed preference (preference score): failed to elicit a male-directed preference
[2]; Kiss-/- (OVX+E+P) females, single sc injection 0.52 μg kg^-1, P<0.001, FIG. 1b
  male-directed preference (preference score): induced a very strong preference for the male; also recorded: triggered a male-directed preference
[2]; KissIC Cre+ females (OVX+E+P) after AAV-Casp3 ablation of RP3V kisspeptin neurons, single sc injection, P=0.041, FIG. 1e
  male-directed preference (preference score): induced a male-directed preference; also recorded: sufficient to induce a male-directed preference

## GnRH: GnRH from Polypeptide Laboratories France SAS, SC087 (QHWSYGLRPG; Gonadoliberin-1; UniProt P01148 24-33, looked up) [reference compound]
[1]; Kiss-/- (OVX+E) females, single injection, P=0.65, FIG. 9c
  lordosis behavior: failed to stimulate lordosis behavior
[1]; nNOS-/- (OVX+E) females, sc injection, P=0.19, FIG. 11c
  lordosis behavior: failed to restore lordosis behavior; also recorded: failed to stimulate lordosis behavior
[2]; GnRH::Cre, Dicer loxP/loxP females (OVX+E), single sc injection 0.025 mg kg^-1, P=0.01, FIG. 9a
  male-directed preference (preference score): induced a male-directed preference; also recorded: restored this behavior

## kisspeptin-54: human kisspeptin-54, SEQ ID NO: 17, amino acids 68 to 121 of NP_002247.3 (GTSLSPPPESSGSPQQPGLSAPHSRQIPAPQGAVLVQREKDLPNYNWNSFGLRF; listed as Homo sapiens)
[3]
  brain activation when watching the images (BOLD MRI): show increased brain activation
[4]
  time by which effects on sexual desire disappear after the injection: ≤ 4 h
[4]; scored from 15 minutes after administration
  vaginal blood flow when watching neutral images: not when watching neutral images
[4]; scored from 15 minutes after administration, versus saline
  vaginal blood flow when watching erotic images: show increased vaginal blood flow
